Measured values taken from PubChem BioAssay AID248 (DTP/NCI, 2004).
Several values for one entry are separate records, joined by “and”; a condition that tells them apart may be missing. Equal entries are not always repeated. Toxic doses and inconclusive results are not listed. No stated cut-off is given here; in the data, active means T/C of 150% or more; inactive means T/C below 125%.

System: L1210 leukemia ip in BDF1 mice, survival T/C
Test: NCI In Vivo Anticancer Drug Screen. Data for tumor model L1210 Leukemia (intraperitoneal) in B6D2F1 (BDF1) mice
Conditions: endpoint: mean survival time, higher = longer survival
Summary of the method: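 Transplanted-tumor mice were given test agent; controls received vehicle only. Survival readings from the two groups were divided (treated over control).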

[1] = dose: 25.0 mg/kg/injection, schedule: Q01DX009 (ip), vehicle: Klucel (hydroxypropylcellulose) (HPC)
[2] = dose: 100.0 mg/kg/injection, schedule: Q04DX003 (ip), vehicle: saline with Tween-80
[3] = dose: 200.0 mg/kg/injection, schedule: Q04DX003 (ip), vehicle: saline with Tween-80
[4] = dose: 400.0 mg/kg/injection, schedule: Q04DX003 (ip), vehicle: saline with Tween-80
[5] = dose: 100.0 mg/kg/injection, schedule: Q01DX001 (ip), vehicle: saline
[6] = dose: 100.0 mg/kg/injection, schedule: Q04DX003 (ip), vehicle: saline
[7] = dose: 200.0 mg/kg/injection, schedule: Q01DX001 (ip), vehicle: saline
[8] = dose: 200.0 mg/kg/injection, schedule: Q04DX003 (ip), vehicle: saline
[9] = dose: 400.0 mg/kg/injection, schedule: Q01DX001 (ip), vehicle: saline
[10] = dose: 400.0 mg/kg/injection, schedule: Q04DX003 (ip), vehicle: saline
[11] = dose: 50.0 mg/kg/injection, schedule: Q01DX009 (ip), vehicle: saline with Tween-80
[12] = dose: 100.0 mg/kg/injection, schedule: Q01DX009 (ip), vehicle: saline with Tween-80
[13] = dose: 200.0 mg/kg/injection, schedule: Q01DX009 (ip), vehicle: saline with Tween-80
[14] = dose: 100.0 mg/kg/injection, schedule: Q01DX009 (ip), vehicle: Klucel (hydroxypropylcellulose) (HPC)
[15] = dose: 200.0 mg/kg/injection, schedule: Q01DX009 (ip), vehicle: Klucel (hydroxypropylcellulose) (HPC)
[16] = dose: 400.0 mg/kg/injection, schedule: Q01DX009 (ip), vehicle: Klucel (hydroxypropylcellulose) (HPC)
[17] = dose: 50.0 mg/kg/injection, schedule: Q01DX009 (ip), vehicle: Klucel (hydroxypropylcellulose) (HPC)
[18] = dose: 100.0 mg/kg/injection, schedule: Q04DX003 (ip), vehicle: Klucel (hydroxypropylcellulose) (HPC)
[19] = dose: 200.0 mg/kg/injection, schedule: Q04DX003 (ip), vehicle: Klucel (hydroxypropylcellulose) (HPC)
[20] = dose: 400.0 mg/kg/injection, schedule: Q04DX003 (ip), vehicle: Klucel (hydroxypropylcellulose) (HPC)

Measured: T/C

COC(=O)N1C(N2CCCC2=O)C(C)(C)S1(=O)=O (stereo unspecified)
inactive: dose: 75.0 mg/kg/injection, schedule: Q04DX003 (ip), vehicle: Klucel (hydroxypropylcellulose) (HPC) 102 % of control | dose: 150.0 mg/kg/injection, schedule: Q04DX003 (ip), vehicle: Klucel (hydroxypropylcellulose) (HPC) 94 % of control | dose: 300.0 mg/kg/injection, schedule: Q04DX003 (ip), vehicle: Klucel (hydroxypropylcellulose) (HPC) 89 % of control

C[n+]1ccccc1/C=C/c1ccc2c(c1)OCO2
inactive: dose: 12.5 mg/kg/injection, schedule: Q01DX009 (ip), vehicle: Klucel (hydroxypropylcellulose) (HPC) 94 % of control | dose: 12.5 mg/kg/injection, schedule: Q04DX003 (ip), vehicle: Klucel (hydroxypropylcellulose) (HPC) 95 % of control | [1] 92 % of control | dose: 25.0 mg/kg/injection, schedule: Q04DX003 (ip), vehicle: Klucel (hydroxypropylcellulose) (HPC) 94 % of control

CSCCCNC(=O)c1csc(CCNC(=O)c2ccccc2)n1
inactive: [2] 100 % of control | [3] 100 % of control | [4] 91 % of control

C=C(C)C1CC=C(C)CC1 (stereo unspecified)
inactive: [5] 111 % of control | dose: 100.0 mg/kg/injection, schedule: Q01DX009 (ip), vehicle: saline 91 % of control | [6] 110 % of control | [7] 105 % of control | [8] 97 % of control | [9] 111 % of control | [10] 97 % of control

O=C(CCCBr)Nc1ccc2ccccc2c1
inactive: [11] 98 % of control | [12] 95 % of control | [13] 95 % of control

O=C(Cl)COc1cccc2ccccc12
inactive: [14] 93 % of control | [15] 98 % of control | [16] 101 % of control

O=C1N(Cl)C(=O)C(c2ccccc2)(c2ccc(F)cc2)N1Cl (stereo unspecified)
inactive: [17] 94 % of control | [14] 94 % of control | [18] 96 % of control | [19] 94 % of control

CCCNC(C)(C)C(SSSC(c1ccc(C(F)(F)F)cc1)C(C)(C)NCCC)c1ccc(C(F)(F)F)cc1 (stereo unspecified)
inactive: [12] 96 % of control | [13] 100 % of control

CN(C)N(P(N)(Cl)(c1ccccc1)c1ccccc1)P(N)(Cl)(c1ccccc1)c1ccccc1
inactive: dose: 5.0 mg/kg/injection, schedule: Q01DX001 (ip), vehicle: steriod suspending solution 100 % of control | dose: 10.0 mg/kg/injection, schedule: Q01DX001 (ip), vehicle: steriod suspending solution 105 % of control | dose: 20.0 mg/kg/injection, schedule: Q01DX001 (ip), vehicle: steriod suspending solution 97 % of control | dose: 40.0 mg/kg/injection, schedule: Q01DX001 (ip), vehicle: steriod suspending solution 103 % of control | dose: 80.0 mg/kg/injection, schedule: Q01DX001 (ip), vehicle: steriod suspending solution 94 % of control

Nc1nc(N)c2nonc2n1
inactive: dose: 12.5 mg/kg/injection, schedule: Q01DX005 (ip), vehicle: other 97 % of control | dose: 25.0 mg/kg/injection, schedule: Q01DX005 (ip), vehicle: other 90 % of control | dose: 50.0 mg/kg/injection, schedule: Q01DX005 (ip), vehicle: other 92 % of control | dose: 100.0 mg/kg/injection, schedule: Q01DX005 (ip), vehicle: other 89 % of control | dose: 200.0 mg/kg/injection, schedule: Q01DX005 (ip), vehicle: other 92 % of control

O=C(Nc1cc(Cl)c(Cl)cc1NC(=O)C(Cl)(Cl)Cl)C(Cl)(Cl)Cl
inactive: dose: 5.0 mg/kg/injection, schedule: Q01DX001 (ip), vehicle: other 97 % of control | dose: 10.0 mg/kg/injection, schedule: Q01DX001 (ip), vehicle: other 100 % of control

O=C(CCCc1ccc(N(CCCl)CCCl)cc1)NC1CCCC1
inactive: dose: 4.0 mg/kg/injection, schedule: Q12HX018 (ip), vehicle: other 103 % of control | dose: 6.0 mg/kg/injection, schedule: Q12HX018 (ip), vehicle: other 98 % of control | dose: 8.0 mg/kg/injection, schedule: Q12HX018 (ip), vehicle: other 103 % of control

CCCCCCCCCCCCCCCCS(=O)(=O)N/N=C/c1ccc(NC(C)=O)cc1
inactive: dose: 100.0 mg/kg/injection, schedule: Q01DX001 (ip), vehicle: carboxymethylcellulose (CMC) 98 % of control | dose: 200.0 mg/kg/injection, schedule: Q01DX001 (ip), vehicle: carboxymethylcellulose (CMC) 95 % of control | dose: 400.0 mg/kg/injection, schedule: Q01DX001 (ip), vehicle: carboxymethylcellulose (CMC) 103 % of control

CC(=O)OCC1OC(N=C=S)C(OC(C)=O)C(OC(C)=O)C1OC(C)=O (stereo unspecified)
inactive: dose: 12.5 mg/kg/injection, schedule: Q01DX009 (ip), vehicle: saline with Tween-80 97 % of control | dose: 25.0 mg/kg/injection, schedule: Q01DX009 (ip), vehicle: saline with Tween-80 100 % of control | [11] 93 % of control

Cc1cccc(C)c1NC(=O)c1cccc(C(=O)Nc2c(C)cccc2C)c1
inactive: [14] 98 % of control | [18] 96 % of control | [15] 111 % of control | [19] 87 % of control | [16] 105 % of control | [20] 86 % of control

COc1cccc(NC(=S)/C(=C(/[O-])c2ccc([N+](=O)[O-])cc2)[n+]2ccccc2)c1
inactive: [14] 97 % of control | [15] 98 % of control | [16] 94 % of control

CCOC(=O)c1ccc(NC(=O)N(C2CCCCC2)C2CCCCC2)cc1
inactive: dose: 100.0 mg/kg/injection, schedule: Q01DX001 (ip), vehicle: saline with Tween-80 86 % of control | [12] 101 % of control | dose: 100.0 mg/kg/injection, schedule: Q04DX002 (ip), vehicle: saline with Tween-80 103 % of control and 90 % of control | dose: 200.0 mg/kg/injection, schedule: Q01DX001 (ip), vehicle: saline with Tween-80 86 % of control | [13] 92 % of control | dose: 200.0 mg/kg/injection, schedule: Q04DX002 (ip), vehicle: saline with Tween-80 94 % of control | [3] 94 % of control | dose: 400.0 mg/kg/injection, schedule: Q01DX001 (ip), vehicle: saline with Tween-80 93 % of control | dose: 400.0 mg/kg/injection, schedule: Q01DX009 (ip), vehicle: saline with Tween-80 101 % of control | dose: 400.0 mg/kg/injection, schedule: Q04DX002 (ip), vehicle: saline with Tween-80 94 % of control and 90 % of control | [4] 91 % of control

CC(C)C1=NNC(=O)C1(C)C
inactive: [5] 105 % of control | [7] 108 % of control | [9] 108 % of control

CS(=O)(=O)OCCN(CCOS(C)(=O)=O)c1ccc(C=Nc2ccc(-c3csc(-c4ccc(Br)cc4)n3)cc2)cc1
inactive: [1] 124 % of control | [17] 114 % of control

COc1ccc(C(=O)P(=O)(OC)OC)cc1
inactive: [2] 106 % of control | [3] 104 % of control | [4] 98 % of control

CCSP(N)(=O)c1ccccc1 (stereo unspecified)
inactive: dose: 75.0 mg/kg/injection, schedule: Q01DX001 (ip), vehicle: saline 101 % of control

[O]=[Hf]=[O]
inactive: [6] 96 % of control | [8] 92 % of control | [10] 97 % of control

c1ccc(C2=C(c3ccccc3)N=c3ccccc3=c3ccccc3=N2)cc1
inactive: [14] 98 % of control | [18] 94 % of control | [15] 94 % of control | [19] 94 % of control | [16] 94 % of control | [20] 102 % of control

C[N+](C)(C)C1CCCCCCC(=O)NC1 (stereo unspecified)
inactive: dose: 75.0 mg/kg/injection, schedule: Q01DX009 (ip), vehicle: saline 101 % of control | dose: 150.0 mg/kg/injection, schedule: Q01DX009 (ip), vehicle: saline 92 % of control | dose: 300.0 mg/kg/injection, schedule: Q01DX009 (ip), vehicle: saline 109 % of control
